US9206130B2, “Quinoline derivatives as AXL kinase inhibitors” (Max-Planck-Gesellschaft zur Förderung der Wissenschaften …, priority 2008, dated 2015)

Assays:
[1] = target: T1, wild type AXL (wtAXL) receptor tyrosine kinase (Homo sapiens, UniProt P30530); assay: NIH-3T3-AXL cellular tyrosine kinase assay (inhibition of AXL phosphorylation); format: cell-based; settings: AXL phosphorylation in NIH-3T3-AXL (clone 22) cells, serum-depleted, 2 h with compound, immunoprecipitation / anti-phosphotyrosine blot
T1 construct: WtAXL cDNA was cloned into vector pLXSN(ESK) and transfected into Phoenix E packaging cells; expressed in transfected cells; host or cells: NIH3T3 N7 mouse fibroblasts, retrovirally infected (clone 22)
T1 sequence (P30530 26-894): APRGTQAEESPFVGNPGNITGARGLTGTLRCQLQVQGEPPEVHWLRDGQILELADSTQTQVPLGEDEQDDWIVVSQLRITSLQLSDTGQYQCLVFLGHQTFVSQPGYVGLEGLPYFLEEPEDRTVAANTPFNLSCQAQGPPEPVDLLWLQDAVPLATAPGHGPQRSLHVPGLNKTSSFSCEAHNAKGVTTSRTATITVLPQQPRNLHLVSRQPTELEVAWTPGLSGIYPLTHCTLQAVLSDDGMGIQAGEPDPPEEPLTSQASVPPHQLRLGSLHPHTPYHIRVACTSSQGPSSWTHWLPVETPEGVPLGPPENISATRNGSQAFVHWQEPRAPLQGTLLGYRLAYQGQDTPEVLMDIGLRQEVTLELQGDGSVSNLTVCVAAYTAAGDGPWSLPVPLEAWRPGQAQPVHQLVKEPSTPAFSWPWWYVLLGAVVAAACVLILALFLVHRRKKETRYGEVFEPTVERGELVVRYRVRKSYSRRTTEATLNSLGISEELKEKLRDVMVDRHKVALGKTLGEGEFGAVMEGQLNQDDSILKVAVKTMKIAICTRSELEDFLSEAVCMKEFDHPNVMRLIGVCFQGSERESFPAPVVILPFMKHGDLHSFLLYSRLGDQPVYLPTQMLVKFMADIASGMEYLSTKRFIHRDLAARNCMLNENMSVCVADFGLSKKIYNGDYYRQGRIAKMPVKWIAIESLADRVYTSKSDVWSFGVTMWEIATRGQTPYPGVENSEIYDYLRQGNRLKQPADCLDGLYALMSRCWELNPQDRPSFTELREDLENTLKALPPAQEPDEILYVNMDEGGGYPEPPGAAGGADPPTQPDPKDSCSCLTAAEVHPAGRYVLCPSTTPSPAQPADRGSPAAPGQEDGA
Summary of the method: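 Compound inhibition of AXL autophosphorylation was read by 4G10 immunoblot after anti-AXL immunoprecipitation from lysates. Cells: NIH3T3 lines stably carrying retroviral wild-type human AXL, treated 2 h with compound dilution series.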

Row | Compound | IC50 [1] [nM] | melting point [°C]
1 | COc1cc2c(Oc3ccc(NS(=O)(=O)c4ccccc4OC(F)(F)F)cc3F)ccnc2cc1OCCCNC(=O)OC(C)(C)C [Example D16, (3-{4-[2-Fluoro-4-(2-trifluoromethoxy-benzenesulfonylamino)-phenoxy]-6-methoxy-quinolin-7-yloxy}-propyl)-carbamic acid tert-butyl ester] | 271 | 181 to 183
2 | COc1cc2c(Oc3ccc(NS(=O)(=O)c4ccccc4C(F)(F)F)cc3F)ccnc2cc1OCCCN1CCC(C)CC1 [Example D17, N-(3-Fluoro-4-{6-methoxy-7-[3-(4-methyl-piperidin-1-yl)-propoxy]-quinolin-4-yloxy}-phenyl)-2-trifluoromethyl-benzenesulfonamide] | 46 | 110 to 112
3 | COc1cc2c(Oc3ccc(NS(=O)(=O)c4ccccc4Br)cc3F)ccnc2cc1OCCCN1CCC(C)CC1 [Example D18, 2-Bromo-N-(3-fluoro-4-{6-methoxy-7-[3-(4-methyl-piperidin-1-yl)-propoxy]-quinolin-4-yloxy}-phenyl)-benzenesulfonamide] | 151 | 184 to 186
4 | COc1cc2c(Oc3ccc(NS(=O)(=O)c4ccc(F)cc4F)cc3F)ccnc2cc1OCCCN1CCC(C)CC1 [Example D19, 2,4-Difluoro-N-(3-fluoro-4-{6-methoxy-7-[3-(4-methyl-piperidin-1-yl)-propoxy]-quinolin-4-yloxy}-phenyl)-benzenesulfonamide] | 128 | 135 to 137
5 | COc1cc2c(Oc3ccc(NS(=O)(=O)c4c(F)cccc4F)cc3F)ccnc2cc1OCCCN1CCC(C)CC1 [Example D20, 2,6-Difluoro-N-(3-fluoro-4-{6-methoxy-7-[3-(4-methyl-piperidin-1-yl)-propoxy]-quinolin-4-yloxy}-phenyl)-benzenesulfonamide] | 29 | 200 to 203
6 | COc1cc2c(Oc3ccc(NS(=O)(=O)c4cccc5ccccc45)cc3F)ccnc2cc1OCCCN1CCC(C)CC1 [Example D21, Naphthalene-1-sulfonic acid (3-fluoro-4-{6-methoxy-7-[3-(4-methyl-piperidin-1-yl)-propoxy]-quinolin-4-yloxy}-phenyl)-amide] | 347 | 140 to 143
7 | CCCS(=O)(=O)Nc1ccc(Oc2ccnc3cc(OCCCN4CCC(C)CC4)c(OC)cc23)c(F)c1 [Example D22, Propane-1-sulfonic acid (3-fluoro-4-{6-methoxy-7-[3-(4-methyl-piperidin-1-yl)-propoxy]-quinolin-4-yloxy}-phenyl)-amide] | 477 | 160 to 162
8 | COc1cc2c(Oc3ccc(NS(=O)(=O)c4ccccc4C#N)cc3F)ccnc2cc1OCCCN1CCC(C)CC1 [Example D23, 2-Cyano-N-(3-fluoro-4-{6-methoxy-7-[3-(4-methyl-piperidin-1-yl)-propoxy]-quinolin-4-yloxy}-phenyl)-benzenesulfonamide] | 211 | 139 to 142
9 | COc1cc2c(Oc3ccc(NS(=O)(=O)c4ccc(Cl)cc4F)cc3F)ccnc2cc1OCCCN1CCCC(C)C1 (stereo not shown) [Example D24, 4-Chloro-2-fluoro-N-(3-fluoro-4-{6-methoxy-7-[3-(3-methyl-piperidin-1-yl)-propoxy]-quinolin-4-yloxy}-phenyl)-benzenesulfonamide] | 181 | 136 to 138
10 | CCCCS(=O)(=O)Nc1ccc(Oc2ccnc3cc(OCCCN4CCCC(C)C4)c(OC)cc23)c(F)c1 (stereo not shown) [Example D25, Butane-1-sulfonic acid (3-fluoro-4-{6-methoxy-7-[3-(3-methyl-piperidin-1-yl)-propoxy]-quinolin-4-yloxy}-phenyl)-amide] | 378 | 104 to 106
11 | COc1cc2c(Oc3ccc(NS(=O)(=O)c4ccccc4Br)cc3F)ccnc2cc1OCCN1CCOCC1 [Example D26, 2-Bromo-N-{3-fluoro-4-[6-methoxy-7-(2-morpholin-4-yl-ethoxy)-quinolin-4-yloxy]-phenyl}-benzenesulfonamide] | 150 | 175 to 177
